Data as given in patent US6482837B1 (priority 1998, dated 2002).
Read-outs that look alike come from different tables or passages of the source.

What was measured:
[1] = human, in vivo; cited from earlier work
miniature swine bladder = conditions: in vivo
muscarinic receptors [2] = conditions: dog, in vivo; cited from earlier work
muscarinic receptors [3] = conditions: human, in vivo, cited from earlier work
[4] = in vivo; cited from earlier work
guinea pig bladder [5] = conditions: in vivo; cited from earlier work
guinea pig bladder [6] = conditions: in vivo; cited from earlier work; remark: listed apart in the source
[7] = system: M3 versus M1 and M2 receptors; conditions: cited from earlier work
[8] = system: muscarinic receptors in heart and submaxillary gland; conditions: in vivo, iv; cited from earlier work
[9] = human, in vivo
M3 receptor = M3 receptor (Homo sapiens, UniProt P20309); conditions: cited from earlier work
Guinea pig detrusor = assay type: cell-based
tracheal rings = assay type: cell-based, guinea pig
lung = conditions: iv

M3 receptor, sequence (P20309 whole entry): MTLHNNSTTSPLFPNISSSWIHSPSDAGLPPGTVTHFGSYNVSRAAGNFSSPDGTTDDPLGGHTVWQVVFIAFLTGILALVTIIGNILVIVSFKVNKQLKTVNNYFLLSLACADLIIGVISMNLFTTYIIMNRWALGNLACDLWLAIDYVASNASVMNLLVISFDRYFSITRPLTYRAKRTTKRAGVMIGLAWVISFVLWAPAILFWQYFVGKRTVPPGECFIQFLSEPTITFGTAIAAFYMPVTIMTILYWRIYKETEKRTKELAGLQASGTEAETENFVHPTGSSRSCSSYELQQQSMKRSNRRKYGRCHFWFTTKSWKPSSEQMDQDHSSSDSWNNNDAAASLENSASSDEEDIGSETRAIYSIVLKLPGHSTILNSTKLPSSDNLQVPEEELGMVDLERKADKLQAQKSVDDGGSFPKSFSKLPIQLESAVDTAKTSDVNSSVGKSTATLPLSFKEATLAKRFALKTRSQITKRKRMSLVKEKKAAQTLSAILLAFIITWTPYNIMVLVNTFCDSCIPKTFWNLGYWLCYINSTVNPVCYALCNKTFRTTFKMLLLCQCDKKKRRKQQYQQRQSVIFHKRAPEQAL

CC(CC(c1ccccc1)c1ccccc1)NC(C)(C)C (centres unmarked) [terodiline, Terodiline]
Bladder volume at first urge and bladder capacity [1]: increased
micturition frequency and incontinence episodes [1]: reduced

C[N+]12CCC(CC1)C(OC(=O)C(O)(c1ccccc1)c1ccccc1)C2 (centres unmarked) [MeQNB, methyl quinuclidinyl benzilate]
Body Temp increase ° C. (miniature swine bladder): 0 °C
Heart rate % increase (miniature swine bladder): 0%
activity relative to oxybutynin (miniature swine bladder; iv): about 10 fold
rate constant k+1 (muscarinic receptors [2]): 1e+07 ± 1.7e+06 M⁻¹ s⁻¹
rate constant k−1 (muscarinic receptors [2]): 4.5e+06 ± 500000 M⁻¹ s⁻¹
rate constant of nonspecific binding (muscarinic receptors [3]): 0.03 min⁻¹
Kd (muscarinic receptors [3]; read-out: equilibrium dissociation constant kd): 2 ± 0.5 nM

CN1[C@@H]2CC[C@H]1C[C@@H](OC(=O)C(CO)c1ccccc1)C2 (some centres unmarked) [atropine]
accumulation in the heart blocked by preinjection [4]: 89%

CN(C)CC#CCCC(=O)C(O)(c1ccccc1)C1CCC1 (centres unmarked) [14b, 1-cyclobutyl-7-(dimethylamino)-1-hydroxy-1-phenyl-5-heptyn-2-one]
duration of action relative to oxybutynin (guinea pig bladder [5]): 5 fold

3-(4-benzylpiperazinyl)-1,1-diphenyl-1-hydroxy-2-propanone
separation between bladder function and effect on mydriasis (guinea pig bladder [6]): 20 fold
separation between bladder function and effect on salivation (guinea pig bladder [6]): 41 fold
selective for M3 versus M1 [7]: 18 fold
selective for M3 versus M2 receptors [7]: 242 fold

O=C(OC1CCN(CCBr)CC1)C(c1ccccc1)c1ccccc1 [4-DAMP bromo mustard, N-(2-bromoethyl)-4-piperidinyl diphenylacetate]
receptors alkylated in both the heart and submaxillary gland [8]: more than 95%

O=C1OC2(c3ccc(O)cc3Oc3cc(O)ccc32)c2ccccc21 [fluorescein]
absorbed from the bladder [9]: About 50%

COc1ccccc1CNCCCCCCNCCCCCCCCNCCCCCCNCc1ccccc1OC [methoctramine]
Ki (M3 receptor): 408 nM

O[Si](CCCN1CCCCC1)(c1ccc(F)cc1)C1CCCCC1 (centres unmarked) [p-F-HHSiD]
Ki (M3 receptor; read-out: Ki): 28 nM

COC(=O)C1=CC[C@@H]2CC[C@H]1N2C [AEME, Anhydroecgonine methyl ester]
recovery of response to ACh after repeated washings (Guinea pig detrusor): did not recover
response of tissue to 10^−4M ACh (Guinea pig detrusor): reduced response of tissue
response to a range of ACh concentrations (up to 2×10^−3M) (Guinea pig detrusor): attenuated
reversal of attenuation by washing (Guinea pig detrusor): not reversed
cholinergic agonist activity (tracheal rings): lacked cholinergic agonist activity
levels at which antimuscarinic properties on tracheal rings were observed (as low as) (tracheal rings): 10^−9 M
sensitization to ACh produced by cocaine at 5×10^−6 M (tracheal rings): reduced the sensitization
type of muscarinic activity in vitro (tracheal rings): potent non-competitive muscarinic antagonist
safety (lung; in vivo): wide margin of safety
anticholinergic effects in the lung in vivo (lung): more sustained and dramatic than anticipated
